“Also recorded” adds a separate entry of the source.
How the values were obtained:
[1] = tested on: biofilm formation of Staphylococcus aureus; assay: Biofilm formation, crystal violet biofilm assay; type: cell-based; settings: for formation of biofilms (in words): 100 μM; for inhibition at 100 µM: Staphylococcus aureus
Protocol: The inhibition of the reducing biofilm formation and growth was assessed using the crystal violet biofilm assay as described. Mueller Hinton broth was inoculated with 10^9 CFU/mL of S. aureus overnight cultures. A total of 90 µL of this cell suspension was then dispensed into 96-well microtiter plates containing 10 µL of different concentrations of compounds 1–6. After 24 h growth at 37 °C the plates were washed with PBS to remove unbound cells. Next, the wells were stained with 0.1% crystal violet solution for 10 min at 37 °C. At the completion of the incubation, plates were washed 3 times with PBS and dried. Then, the crystal violet dye from the biofilm was solubilized with 100 µL of ethanol. A total of 100 µL of this solution was then moved to a new microtiter plate for absorbance measurement at λ = 570 nm. The results were reported as percent inhibition normalized to the wild-type control.

[2] = tested on: Staphylococcus aureus ATCC 21027; assay: Antimicrobial activity, bacterial growth (OD620); type: cell-based; settings: for change of antimicrobial activity on decrease of concentration: decrease of concentration from 100 μM (two-fold for compound 6); for inhibition at 100 µM: read-out: inhibition of S. aureus growth
Protocol: The antibacterial activity of compounds 1–6 was evaluated as described previously. The bacterial culture of Staphylococcus aureus ATCC 21027 (Collection of Marine Microorganisms PIBOC FEBRAS) was cultured in a Petri dish at 37 °C for 24 h on solid medium Mueller Hinton broth with agar—16.0 g/L. The assays were performed in 96-well microplates in appropriate Mueller Hinton broth. Each well contained 90 µL of bacterial suspension (10^9 CFU/mL). Then, 10 µL diluted at concentrations from 1.5 µM to 100.0 µM using two-fold dilution was added to compounds 1–6 (DMSO concentration < 1%). Culture plates were incubated overnight at 37 °C, and the OD620 was measured using a Multiskan Spectrum spectrophotometer (Thermo Labsystems Inc., Beverly, MA, USA). Gentamicin was used as a positive control in concentration 1 mg/mL; 1% DMSO solution in PBS as a negative.

[3] = target: T1, sortase A from Staphylococcus aureus (Staphylococcus aureus, UniProt Q2FV99); assay: Sortase activity inhibition assay (SensoLyte 520 Sortase A Activity Assay Kit); type: biochemical; settings: 50 μM; for effect on sortase A enzymatic activity (in words) / decrease of sortase A activity: after 10 min of incubation with the substrate
T1 construct: purchased AnaSpec AS-72229
Protocol: The enzymatic activity of sortase A from Staphylococcus aureus was determined using SensoLyte 520 Sortase A Activity Assay Kit * Fluorimetric * (AnaSpec AS-72229, AnaSpec, San Jose, CA, USA) in accordance with the manufacturer’s instructions. […] DMSO at a concentration of 0.8% was used as a control. PCMB (4-(hydroxymercuri)benzoic acid) was used as sortase A enzyme activity inhibitor. Fluorescence was measured with a plate reader PHERAStar FS (BMG Labtech, Offenburg, Germany) for 60 min, with a time interval of 5 min. The data were processed with MARS Data Analysis v. 3.01R2 (BMG Labtech, Offenburg, Germany). The results were presented as relative fluorescent units (RFUs) and percentage of the control data, calculated using STATISTICA 10.0 software.

[4] = tested on: human keratinocytes HaCaT co-cultivated with S. aureus; assay: Co-cultivation of HaCaT cells with S. aureus, LDH release; type: cell-based; settings: 10 μM, 48 h co-cultivation
Protocol: Co-cultivation of HaCaT cells with S. aureus was carried out as described. HaCaT cells at a concentration of 1.5×10^4 cells per well were seeded in 96-well plates for 24 h. Then, culture medium in each well was changed with S. aureus suspension (10^2 CFU/mL) in full DMEM medium. Fresh DMEM medium without S. aureus suspension was added in other wells as needed. Compounds 1–6 at a concentration of 10 μM were added in wells after 1 h. HaCaT cells and S. aureus were cultured at 37 °C in a humidified atmosphere with 5% (v/v) CO2 for 48 h. After incubation, the plate was centrifuged at 250× g for 10 min and 50 µL of supernatant from each well was transferred into the corresponding wells of an optically clear 96-well plate. An equal volume of the reaction mixture (50 µL) from LDH Cytotoxicity Assay Kit (Abcam, Cambridge, UK) was added to each well and incubated for up to 30 min at room temperature. The absorbance of all samples was measured at λ = 450 nm using a Multiskan FC microplate photometer (Thermo Scientific, Waltham, MA, USA) and expressed in optical units (o.u.).

[5] = tested on: Staphylococcus aureus ATCC 21027; design: method as in PMID 34677452; settings: cited from earlier work
[6] = tested on: biofilm formation of Staphylococcus aureus; design: method as in PMID 34677452; settings: cited from earlier work
[7] = tested on: human keratinocytes HaCaT co-cultivated with S. aureus; design: method as in PMID 34677452; settings: cited from earlier work
[8] = target: T1, sortase A from Staphylococcus aureus; settings: cited from earlier work
[9] = Staphylococcus aureus, ATCC21027, 100 μM

T1 sequence (Q2FV99 whole entry): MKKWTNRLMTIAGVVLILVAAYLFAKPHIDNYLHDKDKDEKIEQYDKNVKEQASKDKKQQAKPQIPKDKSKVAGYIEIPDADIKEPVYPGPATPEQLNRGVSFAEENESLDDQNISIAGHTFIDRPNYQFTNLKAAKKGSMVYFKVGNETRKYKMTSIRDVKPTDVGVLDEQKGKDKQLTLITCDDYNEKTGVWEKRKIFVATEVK

Q: Which “concentration down to which a high level of inhibition of biofilm formation is kept” value [1] does the source give for `C=C(C)C#CC1=C[C@@H](O)[C@@H]2O[C@@H]2[C@@H]1O` (relative stereo) [Compound 6, Acrucipentyn F] here?
A: 25 µM

Q: And the “formation of biofilms (in words)” value [1]?
A: almost absent

Q: And the “antimicrobial effect against S. aureus, ranking in words” value [2]?
A: most pronounced antimicrobial effects

Q: And the “inhibition of S. aureus growth (in words)” value ([2]; 100 μM)?
A: almost completely inhibited

Q: And the “change of antimicrobial activity on decrease of concentration” value [2]?
A: halved

Q: What about the “effect on sortase A enzymatic activity (in words)” value [3] of the same compound?
A: less significant effects

Q: With `C=C(C)C#CC1=C[C@@H](O)[C@H](O)[C@@H](Cl)[C@@H]1O` (relative stereo) [Compound 5, Acrucipentyn E] as the compound, how does the “effect on biofilm formation, comparison in words” value [1] read?
A: weaker inhibitory effect

Q: And the inhibition at 100 µM [1]?
A: 30%

Q: And the inhibition at 100 µM [2, 9]?
A: ≤ 50%

Q: And the “decrease of sortase A activity” value [3]?
A: 21%

Q: What about the “effect on LDH release (in words)” value [4] of the same compound?
A: greatest effect

Q: For `C=C(C)C#C[C@@H]1C[C@H](O)[C@H](O)[C@@H](Cl)[C@@H]1O` (relative stereo) [Compound 3, Acrucipentyn C], which “concentration down to which a high level of inhibition of biofilm formation is kept” value [1] is on record?
A: 12.5 µM

Q: And the “formation of biofilms (in words)” value [1]?
A: almost absent

Q: And the inhibition at 100 µM [2, 9]?
A: 50%

Q: And the “change of antimicrobial activity on decrease of concentration” value [2]?
A: two-fold decrease in activity

Q: And the “time-dependent inhibitory effect on sortase A activity” value ([3]; 60 min data acquisition)?
A: detected throughout the entire period of data acquisition

Q: And the “decrease of sortase A activity” value [3]?
A: 30%

Q: With flavuside B as the compound, how does the “S. aureus growth (in words)” value [5] read?
A: able to inhibit

Q: What about the “S. aureus biofilm formation (in words)” value [6] of the same compound?
A: able to inhibit

Q: What about the “protection of HaCaT keratinocytes in co-culture model (in words)” value [7] of the same compound?
A: protect HaCaT keratinocytes against S. aureus infection

Q: What about the “sortase A enzymatic activity (in words)” value [8] of the same compound?
A: inhibitor of sortase A enzymatic activity

Q: Which results are given for `C=C(C)C#C[C@@H]1C[C@@H](O)[C@@H](Cl)[C@H](O)[C@@H]1O` [Compound 1, Acrucipentyn A]?
A: inhibition of biofilm formation ([1]; concentrations of 12.5–100 μM, respectively): 50–70%; antimicrobial effect against S. aureus, ranking in words [2]: most pronounced antimicrobial effects; inhibition at 12.5 µM ([2]; Staphylococcus aureus, ATCC21027, 12.5 μM, read-out: antimicrobial activity (inhibition of S. aureus growth)): ≤ 50%; inhibition at 100 µM [2, 9]: 60%; decrease of sortase A activity [3]: 18%; effect on LDH release (in words) [4]: greatest effect

Q: With `C=C(C)C#C[C@@H]1C[C@H](O)[C@H](Cl)[C@@H](O)[C@H]1O` (relative stereo) [Compound 2, Acrucipentyn B] as the compound, how does the “effect on biofilm formation, comparison in words” value [1] read?
A: did not show a significant effect

Q: And the inhibition at 100 µM [1]?
A: 30%

Q: And the inhibition at 100 µM [2, 9]?
A: ≤ 50%

Q: And the “effect on sortase A enzymatic activity (in words)” value [3]?
A: inactive; also recorded: did not have any effect

Q: And the “effect on LDH release (in words)” value [4]?
A: greatest effect; also recorded: significant activity

Q: For `C=C(C)C#CC1=C[C@@H](O)[C@@H](Cl)[C@H](O)[C@@H]1O` (relative stereo) [Compound 4, Acrucipentyn D], which “formation of biofilms (in words)” value [1] is on record?
A: almost absent

Q: And the “change of effect on biofilm formation when diluted twice” value ([1]; diluted twice from 100 μM)?
A: halved

Q: And the inhibition at 100 µM [2, 9]?
A: ≤ 50%

Q: What about the “effect on sortase A enzymatic activity (in words)” value [3] of the same compound?
A: less significant effects

Q: What about the “effect on LDH release (in words)” value [4] of the same compound?
A: greatest effect; also recorded: significant activity
